Measured values reported in EP0938471B1, “THE PREPARATION AND USE OF ORTHO-SULFONAMIDO ARYL HYDROXAMIC ACIDS AS MATRIX METALLOPROTEINASE AND TACE INHIBITORS” (priority 1996, dated 1998).
Like-named read-outs stand apart in the source and are kept apart here.

How the values were obtained:
MMP-9 [1] = target: T1, MMP-9 (Homo sapiens, UniProt P14780); test: In vivo MMP inhibition (enzyme in implanted dialysis tubing); parameters: species or system rat (Sprague-Dawley) or mouse (CD-1)
Procedure: A 2 cm piece of dialysis tubing (molecular weight cut-off 12-14,000, 10 mm flat width) containing matrix metalloproteinase enzyme (stromelysin, collagenase or gelatinase in 0.5 mL of buffer) is implanted either ip or sc (in the back) of a rat (Sprague-Dawley, 150-200g) or mouse (CD-1,25-50g) under anesthesia. Drugs are administered PO, IP, SC or IV through a canula in the jugular vein. Drugs are administered in a dose volume of 0.1 to 0.25 mL/animal. Contents of the dialysis tubing is collected and enzyme activity assayed. Enzyme reaction rates for each dialysis tube are calculated. Tubes from at least 3 different animals are used to calculate the mean± sem. Statistical significance (p<0.05) of vehicle-treated animals versus drug-treated animals is determined by analysis of variance. (Agents and Actions 21: 331, 1987).

TACE = TACE (Homo sapiens, UniProt P78536); test: TACE inhibition (fluorescent peptidyl substrate); type: biochemical; conditions: for inhibition at 1 µM: at 1µM concentration
MMP-1 = target: T2, MMP-1 (Homo sapiens, UniProt P03956); test: MMP-1 inhibition (thiopeptide or fluorescent peptide substrate assay); type: biochemical; conditions: for IC50: read-out: MMP-1 IC50; for MMP-1 % inhibition: concentration given as (10), unit not given
T2 sequence (P03956 100-469): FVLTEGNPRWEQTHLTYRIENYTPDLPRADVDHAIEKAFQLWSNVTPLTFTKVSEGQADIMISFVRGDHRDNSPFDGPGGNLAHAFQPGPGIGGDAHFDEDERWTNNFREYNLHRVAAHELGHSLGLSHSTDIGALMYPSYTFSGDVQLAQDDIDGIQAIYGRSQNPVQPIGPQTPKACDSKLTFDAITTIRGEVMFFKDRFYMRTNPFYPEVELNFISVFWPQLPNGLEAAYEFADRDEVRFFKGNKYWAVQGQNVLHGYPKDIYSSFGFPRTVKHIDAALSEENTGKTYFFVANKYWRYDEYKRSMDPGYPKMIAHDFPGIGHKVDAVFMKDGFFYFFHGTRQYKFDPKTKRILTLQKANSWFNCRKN

MMP-9 [2] = target: T1, MMP-9; test: MMP-9 inhibition (thiopeptide or fluorescent peptide substrate assay); type: biochemical; conditions: for IC50: read-out: MMP-9 IC50; for inhibition at 1 µM: read-out: MMP-9 % inhibition, footnote: 1µM
MMP-13 = MMP-13 (Homo sapiens, UniProt P45452); test: MMP-13 inhibition (thiopeptide or fluorescent peptide substrate assay); type: biochemical; conditions: for MMP-13 % inhibition: concentration given as (.1), unit not given
cartilage = test: Cartilage degradation in the rat (cartilage-sponge implant); type: in vivo, rat (Lewis strain); conditions: average daily dose 50 mg/kg, intraperitoneal osmotic minipump; for % Inhibition of Cartilage Collagen Loss: * = p<0.05 vs vehicle-treated rats
Procedure: Twenty mg slices of cartilage are obtained from the knee of freshly slaughtered cattle. Discs of cellulose sponge, 6 mm in diameter, are cut and a 2 mm hole put in the center of the sponge. 100 µl of a sterile suspension containing 1 mg of heat-killed Mycobacterium tuberculosis is applied to the sponge. After air-drying overnight, the sponges are autoclaved and a cartilage slice is placed in the hole cut in the sponge disc. Under sterile conditions, the cartilage-sponge disc is placed subcutaneously in the back of an anesthetized rat (Lewis strain, 200 to 250 g). The incision is closed with staples and the rat allowed to recover from anesthesia. Approximately 5 days after sponge implantation, osmotic minipumps (Alza Corp., Palo Alto, CA), containing either investigational compound or vehicle were implanted intraperitoneally in the anesthetized rat under sterile conditions After 19 days, the rats are euthanized by asphyxiation with CO2 and the granulomas containing the implanted sponge excised from the surrounding tissue.
The weight of the piece of cartilage recovered from the sponge was recorded and the collagen content of the cartilage was determined. The mean of the cartilage weights and collagen content was determined for the vehicle and drug-treated groups. The inhibition of cartilage weight and collagen content loss produced by the compounds compared with vehicle-treated rats was determined. Statistical significance (p< 0.05) of vehicle-treated animals versus drug-treated animals was determined by analysis of variance.
Reference: Bishop J., Greenham AK., Lewis EJ. A novel in vivo model for the study of cartilage degradation. J. Pharmacol. Toxicol. Methods, 30:19-25, 1993.

[3] = 100 mg/kg, ip (intraperitoneal)

Sequence of TACE (P78536 215-824): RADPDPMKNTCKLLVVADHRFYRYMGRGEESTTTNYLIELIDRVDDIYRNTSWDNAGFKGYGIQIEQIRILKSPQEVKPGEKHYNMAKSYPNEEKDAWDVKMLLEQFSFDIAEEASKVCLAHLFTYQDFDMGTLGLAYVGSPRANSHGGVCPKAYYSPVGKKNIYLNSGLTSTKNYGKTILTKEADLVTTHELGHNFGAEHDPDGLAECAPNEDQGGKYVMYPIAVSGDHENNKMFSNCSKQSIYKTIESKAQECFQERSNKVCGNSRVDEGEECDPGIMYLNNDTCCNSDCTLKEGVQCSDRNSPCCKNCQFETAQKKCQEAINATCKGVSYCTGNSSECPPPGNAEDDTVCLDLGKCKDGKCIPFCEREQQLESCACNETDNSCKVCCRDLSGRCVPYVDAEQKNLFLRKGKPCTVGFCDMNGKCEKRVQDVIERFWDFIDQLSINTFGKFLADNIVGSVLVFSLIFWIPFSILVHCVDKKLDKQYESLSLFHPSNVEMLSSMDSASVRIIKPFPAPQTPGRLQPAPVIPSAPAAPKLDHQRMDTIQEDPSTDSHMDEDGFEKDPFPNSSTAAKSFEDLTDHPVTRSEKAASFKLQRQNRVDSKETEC
T1 sequence (P14780 94-707): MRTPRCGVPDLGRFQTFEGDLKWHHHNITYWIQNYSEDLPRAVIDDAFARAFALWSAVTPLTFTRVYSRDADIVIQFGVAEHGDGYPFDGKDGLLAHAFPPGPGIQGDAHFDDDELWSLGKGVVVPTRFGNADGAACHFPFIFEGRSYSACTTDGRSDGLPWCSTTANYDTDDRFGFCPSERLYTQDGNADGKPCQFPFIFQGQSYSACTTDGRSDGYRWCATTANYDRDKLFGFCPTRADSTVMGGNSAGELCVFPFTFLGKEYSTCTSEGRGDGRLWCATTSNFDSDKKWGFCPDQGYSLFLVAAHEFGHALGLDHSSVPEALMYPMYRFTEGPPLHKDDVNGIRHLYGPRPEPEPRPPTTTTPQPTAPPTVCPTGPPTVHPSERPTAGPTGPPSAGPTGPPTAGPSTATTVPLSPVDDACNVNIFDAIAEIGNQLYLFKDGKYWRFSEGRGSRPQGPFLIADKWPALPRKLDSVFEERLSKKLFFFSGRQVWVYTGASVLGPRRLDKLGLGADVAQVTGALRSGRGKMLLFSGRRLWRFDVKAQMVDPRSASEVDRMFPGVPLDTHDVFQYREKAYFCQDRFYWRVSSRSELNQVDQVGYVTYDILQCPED

IC50 (TACE; read-out: TACE IC50) [nM]	IC50 (MMP-1) [nM]	IC50 (MMP-9 [2]) [nM]	IC50 (MMP-13; read-out: MMP-13 IC50) [nM]	MMP-1 % inhibition (MMP-1)	inhibition at 1 µM (MMP-9 [2]) [%]	inhibition at 1 µM (TACE) [%]	Compound	also measured
> 1000	–	–	–	–	–	–	COc1ccc(S(=O)(=O)N(Cc2ccccc2)c2c(C)cc(Br)cc2C(=O)NO)cc1 [Example 25, 2-[Benzyl-(4-methoxy-benzenesulfonyl)-amino]-5-bromo-N-hydroxy-3-methyl-benzamide]	in-vivo MMP % inhibition vs. MMP-9 (MMP-9 [1]; [3]): 32%(100), ip
> 1000	281	28	69	–	–	–	COc1ccc(S(=O)(=O)N(Cc2ccccc2)c2c(OCc3ccccc3)cccc2C(=O)NO)cc1 [Example 34, 2-[Benzyl-(4-methoxy-benzenesulfonyl)-amino]-3-benzyloxy-N-hydroxy-benzamide]	in-vivo MMP % inhibition vs. MMP-9 (MMP-9 [1]; [3]): 31.6(100), ip %
–	–	–	–	–	–	–	COc1ccc(S(=O)(=O)N(Cc2cccnc2)c2c(C)cccc2C(=O)NO)cc1 [Example 83, N-Hydroxy-2-[(4-methoxy-benzenesulfonyl)-pyridin-3-ylmethyl-amino]-3-methyl-benzamide]	% Inhibition of Cartilage Weight Loss (cartilage): 44.6%; % Inhibition of Cartilage Collagen Loss (cartilage): 51.2* %
–	–	24	20	–	–	–	COc1ccc(S(=O)(=O)N(Cc2cccnc2)c2c(C)cc(Br)cc2C(=O)NO)cc1 [Example 91, 5-Bromo-N-hydroxy-2-[(4-methoxy-benzenesulfonyl)-pyridin-3-ylmethyl-amino]-3-methyl-benzamide]	in-vivo MMP % inhibition vs. MMP-9 (MMP-9 [1]; 100 mg/kg, po (oral)): 55(100), po %
154	114	10	10	–	–	–	CCCN(c1c(C)cc(C)cc1C(=O)NO)S(=O)(=O)c1ccc(OC)cc1 [Example 117, N-Hydroxy-2-[(4-methoxy-benzenesulfonyl)-propyl-amino]-3,5-dimethyl-benzamide]	in-vivo MMP % inhibition vs. MMP-9 (MMP-9 [1]; [3]): 28.3(100), ip %
–	–	–	–	47%(10)	28	2	Cc1cccc(C(=O)NO)c1N(Cc1cccnc1)S(=O)(=O)c1ccc(-c2ccc(C(F)(F)F)cc2)cc1 [Example 410, N-Hydroxy-3-methyl-2-[pyridin-3-ylmethyl-(4'-trifluoromethyl-biphenyl-4-sulfonyl)-amino]-benzamide]	MMP-13 % inhibition (MMP-13): 40%(.1)
–	–	–	–	32%(10)	39	9	COc1ccc(-c2ccc(S(=O)(=O)N(Cc3cccnc3)c3c(C)cccc3C(=O)NO)cc2)c(OC)c1 [Example 411, 2-[(2',4'-Dimethoxy-biphenyl-4-sulfonyl)-pyridin-3-ylmethyl-amino]-N-hydroxy-3-methyl-benzamide]	inhibition at 1 µM (MMP-13; read-out: MMP-13 % inhibition, footnote: 1µM): 44%
–	–	–	–	69%(10)	44	3	Cc1cccc(C(=O)NO)c1N(Cc1cccnc1)S(=O)(=O)c1ccc(-c2cccs2)cc1 [Example 412, N-Hydroxy-3-methyl-2-[pyridin-3-ylmethyl-(4-thiophen-2-yl-benzenesulfonyl)-amino]-benzamide]	MMP-13 % inhibition (MMP-13): 42%(.1)
–	529	55	75	–	–	43	C#Cc1ccc(S(=O)(=O)N(Cc2cccnc2)c2c(C)cccc2C(=O)NO)cc1 [Example 413, 2-[(4-Ethynyl-benzenesulfonyl)-pyridin-3-ylmethyl-amino]-N-hydroxy-3-methyl-benzamide]	–
–	–	–	38	29%(10)	68	6	Cc1cccc(C(=O)NO)c1N(Cc1cccnc1)S(=O)(=O)c1ccc(-c2cc3ccccc3s2)cc1 [Example 414, 2-[(4-Benzo[b]thiophen-2-yl-benzenesulfonyl)-pyridin-3-ylmethyl-amino]-N-hydroxy-3-methyl-benzamide]	–
–	–	–	–	37%(10)	43	9	Cc1cccc(C(=O)NO)c1N(Cc1cccnc1)S(=O)(=O)c1ccc(-c2ccc3c(c2)OCO3)cc1 [Example 415, 2-[(4-Benzo[1,3]dioxol-5-yl-benzenesulfonyl)-pyridin-3-ylmethyl-amino]-N-hydroxy-3-methyl-benzamide]	IC50 (MMP-13): 26 nM
158	55	7	3	–	–	–	N-Hydroxy-2-[(4-methoxy-benzenesulfonyl)-pyridin-3-ylmethyl-amino]-5-methyl-3-thiophen-2-yl-benzamide [Example 145]	–

Compound	IC50 (TACE; read-out: TACE IC50) [nM]	IC50 (MMP-1) [nM]	IC50 (MMP-9 [2]) [nM]	IC50 (MMP-13; read-out: MMP-13 IC50) [nM]	MMP-1 % inhibition (MMP-1)	inhibition at 1 µM (MMP-9 [2]) [%]	inhibition at 1 µM (TACE) [%]	also measured
COc1ccc(S(=O)(=O)N(Cc2cccnc2)c2c(C)cccc2C(=O)NO)cc1 [Example 61, N-Hydroxy-2-[(4-methoxy-benzenesulfonyl)-pyridin-3-ylmethyl-amino]-3-methyl-benzamide]	289	–	–	–	–	–	–	in-vivo MMP % inhibition vs. MMP-9 (MMP-9 [1]; 20 mg/kg, po (oral)): 46(20), po %; in-vivo MMP % inhibition vs. MMP-9 (MMP-9 [1]; 50 mg/kg, po (oral)): 59(50), po %
COc1ccc(S(=O)(=O)N(C)c2c(CN3CCN(C)CC3)cc(Br)cc2C(=O)NO)cc1 [Example 313, 5-Bromo-N-hydroxy-2-[(4-methoxy-benzenesulfonyl)-methyl-amino]-3-(4-methyl-piperazin-1-ylmethyl)-benzamide]	–	180	1.4	–	–	–	–	IC50 (TACE): 26 nM; % Inhibition of Cartilage Weight Loss (cartilage): 45.5%; % Inhibition of Cartilage Collagen Loss (cartilage): 28.0* %
